Several values for one entry are separate records, joined by “and”; a condition that tells them apart may be missing. Identical values can stand only once.
Key:
Bax = Bax activation assay; format: cell-based, human; conditions: for Bax Conc: A-549 cancer cells
Protocol: 4.2.7. Bax activation assay
Bring all reagents, except the human Bax-α Standard, to room temperature for at least 30 minutes prior to opening. The human Bax-α Standard solution should not be left at room temperature for more than 10 minutes. All standards, controls and samples should be run in duplicate. Refer to the Assay Layout Sheet to determine the number of wells to be used and put any remaining wells with the desiccant back into the pouch and seal the ziploc. Store unused wells at 4 °C. Pipet 100 μL of Assay Buffer into the S0 (0 pg/mL standard) wells. Pipet 100 μL of Standards #1 through #6 into the appropriate wells. Pipet 100 μL of the Samples into the appropriate wells. Tap the plate gently to mix the contents. Seal the plate and incubate at room temperature on a plate shaker for 1 hour at ~500 rpm. Empty the contents of the wells and wash by adding 400 μL of wash solution to every well. Repeat the wash 4 more times for a total of 5 washes. After the final wash, empty or aspirate the wells and firmly tap the plate on a lint free paper towel to remove any remaining wash buffer.
Pipet 100 μL of yellow Antibody into each well, except the Blank. Seal the plate and incubate at room temperature on a plate shaker for 1 hour at ~500 rpm. Empty the contents of the wells and wash by adding 400 μL of wash solution to every well. Repeat the wash 4 more times for a total of 5 washes. After the final wash, empty or aspirate the wells and firmly tap the plate on a lint free paper towel to remove any remaining wash buffer. Add 100 μL of blue Conjugate to each well, except the Blank. Seal the plate and incubate at room temperature on a plate shaker for 30 minutes […]
Pipet 100 μL of Substrate Solution into each well. Incubate for 30 minutes at room temperature on a plate shaker at ~500 rpm. Pipet 100 μL Stop Solution to each well. Blank the plate reader against the Blank wells, read the optical density at 450 nm. Calculate the average net Optical Density (OD) bound for each standard and sample by subtracting the average Blank OD from the average OD for each standard and sample. Using linear graph paper, plot the Average Net OD for each standard versus Bax concentration in each standard. Approximate a straight line through the points.
The concentration of Bax in the unknowns can be determined by interpolation. […]

A-549 cancer cells = assay: Wound healing assay (migration, wound closure); format: cell-based, human; conditions: A-549 cells
Protocol: Wound healing assay is a simple, reproducible, and non-expensive method to study cancer cell migration in vitro ([Rodriguez et al., 2005]). We investigated the wound-healing activities of compounds 22 and 29 in A-549 cancer cells. […] Furthermore, the wound closure percentage achieved 100% after 72 h of treatment with a compound 22, whereas it reached only 80% with a compound 29.

[1] = test system: MCF-7 Breast Adenocarcinoma cell line; assay: Wound healing assay (supplement, Table S3); format: cell-based; conditions: for Migration rate: Rm=Wi−Wf / t
Protocol: 4.3. Wound Healing Assay of MCF-7 Breast Adenocarcinoma
MCF-7 Breast Adenocarcinoma cell line was obtained from Nawah Scientific Inc., (Mokatam, Cairo, Egypt). Cells were maintained in DMEM media supplemented with […] of streptomycin, 100 units/mL of penicillin and 10% of heat-inactivated fetal bovine serum in humidified, 5% (v/v) CO2 atmosphere at 37 °C.
4.3.2. Wound healing assay
Cells were plated at a density of 2x10^5/well onto a coated 12-well plate for scratch wound assay and cultured overnight in 5% FBS-DMEM at 37 °C and 5% CO2. On the next day, horizontal scratches were introduced into the confluent monolayer; the plate was washed thoroughly with PBS, control wells were replenished with fresh medium while drug wells were treated with fresh media containing drug 26 and 27. Images were taken using an inverted microscope at the indicated time intervals. The plate was incubated at 37 °C and 5% CO2 in-between time points. The acquired […]
4.4. Wound Healing Assay Calculations
Wound width can be calculated as the average distance between the edges of the scratches; the wound width decreases as cell migration is induced. The results of compounds 26 and 27 were […]
Migration rate is calculated by dividing the time spent in migration according to the following

`COc1ccc(CSc2nc(-c3ccc(OC)cc3)cc(-c3cccc(OC)c3)n2)cc1` [Compound 22, 2-(4-Methoxybenzylthio)-6-(3-methoxyphenyl)-4-(4-methoxyphenyl)pyrimidine] was tested, and the “Bax Conc” value (Bax) was 294 pg/mL and 294 ± 6 pg/mL, the “Wound closure % 24 h” value (A-549 cancer cells) was 25% and the “Wound closure % 48 h” value (A-549 cancer cells) was 50%. For the same molecule, the “Wound closure % 72 h” value (A-549 cancer cells) was 100%.
With `COc1ccc(-c2cc(-c3ccc(Cl)cc3)nc(SC(C)C)n2)cc1OC` [Compound 26, 4-(4-Chlorophenyl)-2-(isopropylthio)-6-(3,4-dimethoxyphenyl)pyrimidine] the “Wound Width ±SD 0 h” value [1] was 1.01±0.02 mm, the “Wound Width ±SD 24 h” value [1] was 0.76±0.04 mm and the “Wound closure % 24 h” value [1] was 25%. For the same molecule, the “Wound Width ±SD 48 h” value [1] was 0.51±0.03 mm, the “Wound closure % 48 h” value [1] was 49.7% and the “Wound Width ±SD 72 h” value [1] was 0 mm. For the same molecule, the “Wound closure % 72 h” value [1] was 100% and the Migration rate [1] was 0.013.
`C=CCSc1nc(-c2ccc(Cl)cc2)cc(-c2ccc(OC)c(OC)c2)n1` [Compound 27, 2-(Allylthio)-4-(4-chlorophenyl)-6-(3,4-dimethoxyphenyl)pyrimidine] was tested, and the “Wound Width ±SD 0 h” value [1] was 1±0.02 mm, the “Wound Width ±SD 24 h” value [1] was 0.88±0.03 mm and the “Wound closure % 24 h” value [1] was 11.3%. For the same molecule, the “Wound Width ±SD 48 h” value [1] was 0.66±0.03 mm, the “Wound closure % 48 h” value [1] was 34% and the “Wound Width ±SD 72 h” value [1] was 0.2±0.18 mm. For the same molecule, the “Wound closure % 72 h” value [1] was 80% and the Migration rate [1] was 0.011.
With `COc1ccc(CSc2nc(-c3ccc(Cl)cc3)cc(-c3ccc(OC)c(OC)c3)n2)cc1` [Compound 29, 2-(4-Methoxybenzylthio)-4-(4-chlorophenyl)-6-(3,4-dimethoxyphenyl)pyrimidine] the “Bax Conc” value (Bax) was 278 pg/mL and 278 ± 5 pg/mL, the “Bax Fold change” value (Bax; compared to untreated A-549 cancer cells) was 35 fold and the “Wound closure % 24 h” value (A-549 cancer cells) was 11%. The “Wound closure % 48 h” value (A-549 cancer cells) was 34% and the “Wound closure % 72 h” value (A-549 cancer cells) was 80%.

Reference: publication PMC11576293, “New series of 4,6-diaryl pyrimidines: facile synthesis and antiproliferative activity as dual EGFR/VEGFR-2 inhibitors” (Frontiers in Chemistry, 2024)
